From ChEMBL document CHEMBL5143590, “Dihydropyrimidinone imidazoles as unique structural antibacterial agents for drug-resistant gram-negative pathogens” (Eur J Med Chem, 2022)
Converted amounts (≈) assume the structure as drawn. The source made the active and inactive calls. No cut-off for these calls is given here.

Assays:
Klebsiella pneumoniae [1] = assay: Induction of morphological changes in Klebsiella pneumoniae assessed as cytoplasmic sparsity at 2 times MIC for 4 hrs by TEM analysis; format: functional, organism-based
Staphylococcus aureus [2] = assay: Antibacterial activity against Staphylococcus aureus 25923 assessed as inhibition of bacterial growth by two fold serial dilution method; format: functional
Acinetobacter baumannii [3] = assay: Antioxidant activity in Acinetobacter baumannii assessed as loss of GSH activity at 1 to 8 times MIC; format: functional, organism-based
Escherichia coli [4] = assay: Antibacterial activity against Escherichia coli 25922 assessed as inhibition of bacterial growth by two fold serial dilution method; format: functional
Acinetobacter baumannii [5] = assay: Anti- biofilm activity against Acinetobacter baumannii assessed as biofilm viability at 2 times MIC relative to control; format: functional
Cell membrane [6] = assay: Induction of inner membrane damage in Klebsiella pneumoniae assessed as disruption of membrane integrity at 0.25 to 2 ug/ml by propidium iodide staining based fluorescence analysis; format: subcellular; details: dose 0.25-2 µg/ml
[7] = Cytotoxicity against human endothelial cells assessed as viable cells upto 40 ug/ml relative to control; format: toxicity, cell-based, Endothelial cell; details: up to 40 µg/mL, read-out: Activity
Klebsiella pneumoniae [8] = assay: Anti- biofilm activity against Klebsiella pneumoniae assessed as inhibition of biofilm formation at 4 times MIC relative to control; format: functional; design: scale not given: the % may be the effect or the level left
Klebsiella pneumoniae [9] = assay: Induction of ROS generation in Klebsiella pneumoniae assessed as ROS accumulation at 1 to 8 times MIC by DCFH-DA dye based fluorescence assay; format: functional, organism-based; details: DDE = dose-dependent effect
[10] = Cytotoxicity against human HepG2 cells assessed as viable cells upto 40 ug/ml relative to control; format: toxicity, cell-based; details: up to 40 µg/mL, read-out: Activity
Klebsiella pneumoniae [11] = assay: Induction of morphological changes in Klebsiella pneumoniae assessed as shrunken cell membrane at 2 times MIC for 4 hrs by SEM analysis; format: functional, organism-based
Pseudomonas aeruginosa [12] = assay: Antibacterial activity against Pseudomonas aeruginosa assessed as inhibition of bacterial growth by two fold serial dilution method; format: functional
Acinetobacter baumannii [13] = assay: Anti- biofilm activity against Acinetobacter baumannii assessed as inhibition of biofilm formation at 1 time MIC relative to control; format: functional; design: scale not given: the % may be the effect or the level left
Klebsiella pneumoniae [14] = assay: Antibacterial activity against Klebsiella pneumoniae assessed as inhibition of bacterial growth by two fold serial dilution method; format: functional
Klebsiella pneumoniae [15] = assay: Anti- biofilm activity against Klebsiella pneumoniae assessed as biofilm viability at 1 time MIC relative to control; format: functional
Staphylococcus aureus [16] = assay: Antibacterial activity against methicillin-resistant Staphylococcus aureus N315 assessed as inhibition of bacterial growth by two fold serial dilution method; format: functional
Acinetobacter baumannii [17] = assay: Anti- biofilm activity against Acinetobacter baumannii assessed as inhibition of biofilm formation at 4 times MIC relative to control; format: functional; design: scale not given: the % may be the effect or the level left
Acinetobacter baumannii [18] = assay: Anti- biofilm activity against Acinetobacter baumannii assessed as inhibition of biofilm formation at 6 times MIC relative to control; format: functional; design: scale not given: the % may be the effect or the level left
Staphylococcus aureus [19] = assay: Antibacterial activity against Staphylococcus aureus 29213 assessed as inhibition of bacterial growth by two fold serial dilution method; format: functional
Calf thymus DNA [20] = assay: Binding affinity to calf thymus DNA assessed as reduction in fluorescence intensity of DNA-acridine orange complex by acridine orange dye based fluorescence analysis; format: nucleic-acid assay; details: Bos taurus
Klebsiella pneumoniae [21] = assay: Induction of morphological changes in Klebsiella pneumoniae assessed as cell lysis at 2 times MIC for 4 hrs by TEM analysis; format: functional, organism-based
Cell membrane [22] = assay: Induction of cytoplasmic membrane depolarization in Acinetobacter baumannii assessed as increase in fluorescence intensity at 0.5 to 4 times MIC and measured up to 100 mins by DiSC35 dye based fluorescence method; format: subcellular; details: TDE = time-dependent effect
Klebsiella pneumoniae [23] = assay: Induction of morphological changes in Klebsiella pneumoniae assessed as appearance of broken cell membrane at 2 times MIC for 4 hrs by SEM analysis; format: functional, organism-based
Cell membrane [24] = assay: Induction of inner membrane damage in Acinetobacter baumannii assessed as disruption of membrane integrity at 0.25 to 2 ug/ml by propidium iodide staining based fluorescence analysis; format: subcellular; details: dose 0.25-2 µg/ml
Acinetobacter baumannii [25] = assay: Induction of ROS generation in Acinetobacter baumannii assessed as ROS accumulation at 1 to 8 times MIC by DCFH-DA dye based fluorescence assay; format: functional, organism-based; details: DDE = dose-dependent effect
Cell membrane [26] = assay: Induction of cytoplasmic membrane depolarization in Klebsiella pneumoniae assessed as increase in fluorescence intensity at 0.5 to 4 times MIC and measured up to 100 mins by DiSC35 dye based fluorescence method; format: subcellular; details: TDE = time-dependent effect
Cell membrane [27] = assay: Induction of outer membrane permeabilization in Acinetobacter baumannii assessed as increase in fluorescence intensity at 4 times MIC by NPN-dye based fluorescence analysis; format: subcellular
Klebsiella pneumoniae [28] = assay: Bactericidal activity against Klebsiella pneumoniae assessed as reduction in bacterial growth at MIC and measured within 2 hrs by time-kill kinetic assay; format: functional
Cell membrane [29] = assay: Induction of cytoplasmic membrane depolarization in Klebsiella pneumoniae assessed as increase in fluorescence intensity at 0.5 to 4 times MIC by DiSC35 dye based fluorescence method; details: DDE = dose-dependent effect
Acinetobacter baumannii [30] = assay: Antibacterial activity against Acinetobacter baumannii assessed as inhibition of bacterial growth by two fold serial dilution method; format: functional
Klebsiella pneumoniae [31] = assay: Anti- biofilm activity against Klebsiella pneumoniae assessed as biofilm viability at 4 times MIC relative to control; format: functional
Erythrocyte = assay: Hemolytic activity in human RBC assessed as hemolysis at 512 ug/ml; format: toxicity, cell-based; details: dose 512 µg/ml
Klebsiella pneumoniae [32] = assay: Anti- biofilm activity against Klebsiella pneumoniae assessed as biofilm viability at 2 times MIC relative to control; format: functional
Escherichia coli [33] = assay: Antibacterial activity against Escherichia coli assessed as inhibition of bacterial growth by two fold serial dilution method; format: functional
Klebsiella pneumoniae [34] = assay: Bactericidal activity against Klebsiella pneumoniae assessed as reduction in bacterial growth at 4 times MIC and measured within 2 hrs by time-kill kinetic assay relative to control; format: functional; design: scale not given: the % may be the effect or the level left
Acinetobacter baumannii [35] = assay: Anti- biofilm activity against Acinetobacter baumannii assessed as biofilm viability at 4 times MIC relative to control; format: functional
Klebsiella pneumoniae [36] = assay: Anti- biofilm activity against Klebsiella pneumoniae assessed as biofilm viability at 6 times MIC relative to control; format: functional
Cell membrane [37] = assay: Induction of outer membrane permeabilization in Klebsiella pneumoniae assessed as increase in NPN fluorescence at 4 times MIC by NPN-dye based fluorescence analysis; format: subcellular
Pseudomonas aeruginosa [38] = assay: Antibacterial activity against Pseudomonas aeruginosa 27853 assessed as inhibition of bacterial growth by two fold serial dilution method; format: functional
Klebsiella pneumoniae [39] = assay: Anti- biofilm activity against Klebsiella pneumoniae assessed as inhibition of biofilm formation at 6 times MIC relative to control; format: functional; design: scale not given: the % may be the effect or the level left
Acinetobacter baumannii [40] = assay: Bactericidal activity against Acinetobacter baumannii assessed as reduction in bacterial growth at 4 times MIC and measured within 2 hrs by time-kill kinetic assay relative to control; format: functional; design: scale not given: the % may be the effect or the level left
Klebsiella pneumoniae [41] = assay: Anti- biofilm activity against Klebsiella pneumoniae assessed as inhibition of biofilm formation at 1 time MIC relative to control; format: functional; design: scale not given: the % may be the effect or the level left
Acinetobacter baumannii [42] = assay: Anti- biofilm activity against Acinetobacter baumannii assessed as inhibition of biofilm formation at 2 times MIC relative to control; format: functional; design: scale not given: the % may be the effect or the level left
Klebsiella pneumoniae [43] = assay: Anti- biofilm activity against Klebsiella pneumoniae assessed as inhibition of biofilm formation at 2 times MIC relative to control; format: functional; design: scale not given: the % may be the effect or the level left
Acinetobacter baumannii [44] = assay: Anti- biofilm activity against Acinetobacter baumannii assessed as biofilm viability at 1 time MIC relative to control; format: functional
Acinetobacter baumannii [45] = assay: Anti- biofilm activity against Acinetobacter baumannii assessed as biofilm viability at 6 times MIC relative to control; format: functional
Staphylococcus aureus [46] = assay: Antibacterial activity against Staphylococcus aureus assessed as inhibition of bacterial growth by two fold serial dilution method; format: functional
Klebsiella pneumoniae [47] = assay: Antioxidant activity in Klebsiella pneumoniae assessed as loss of GSH activity at 1 to 8 times MIC; format: functional, organism-based
Cell membrane [48] = assay: Induction of cytoplasmic membrane depolarization in Acinetobacter baumannii assessed as increase in fluorescence intensity at 0.5 to 4 times MIC by DiSC35 dye based fluorescence method; details: DDE = dose-dependent effect
Klebsiella pneumoniae [49] = assay: Induction of morphological changes in Klebsiella pneumoniae assessed as membrane rupture at 2 times MIC for 4 hrs by TEM analysis; format: functional, organism-based
Acinetobacter baumannii [50] = assay: Bactericidal activity against Acinetobacter baumannii assessed as reduction in bacterial growth at MIC and measured within 2 hrs by time-kill kinetic assay; format: functional
Enterococcus faecalis = assay: Antibacterial activity against Enterococcus faecalis assessed as inhibition of bacterial growth by two fold serial dilution method; format: functional
Calf thymus DNA [51] = assay: Binding affinity to calf thymus DNA assessed as assessed as compound-DNA complex formation by measuring red shift by UV-visible absorption spectrophotometric method; format: nucleic-acid assay; details: Bos taurus

SMILES: CCCCc1nc(Cl)c(C2NC(=O)NC(CN(c3cc(C)no3)S(=O)(=O)c3ccc(N)cc3)=C2C(=O)OCC)[nH]1 (stereo not drawn)
- Activity (Klebsiella pneumoniae [1]): Active
- MIC (Staphylococcus aureus [2]): 8 µg/mL (≈ 13.5 µM)
- Activity (Acinetobacter baumannii [3]): Active
- MIC (Escherichia coli [4]): 1 µg/mL (≈ 1.69 µM)
- Activity (Acinetobacter baumannii [5]): 83%
- Activity (Cell membrane [6]): Active
- viability [7]: > 50%
- Activity (Klebsiella pneumoniae [8]): 82%
- Activity (Klebsiella pneumoniae [9]): Dde
- viability [10]: > 50%
- Activity (Klebsiella pneumoniae [11]): Active
- MIC (Pseudomonas aeruginosa [12]): 4 µg/mL (≈ 6.76 µM)
- Activity (Acinetobacter baumannii [13]): 21%
- MIC (Klebsiella pneumoniae [14]): 0.5 µg/mL (≈ 0.844 µM)
- Activity (Klebsiella pneumoniae [15]): 85%
- MIC (Staphylococcus aureus [16]): 4 µg/mL (≈ 6.76 µM)
- Activity (Acinetobacter baumannii [17]): 58%
- Activity (Acinetobacter baumannii [18]): 84%
- MIC (Staphylococcus aureus [19]): 2 µg/mL (≈ 3.38 µM)
- Activity (Calf thymus DNA [20]): Active
- Activity (Klebsiella pneumoniae [21]): Active
- Activity (Cell membrane [22]): Tde
- Activity (Klebsiella pneumoniae [23]): Active
- Activity (Cell membrane [24]): Active
- Activity (Acinetobacter baumannii [25]): Dde
- Activity (Cell membrane [26]): Tde
- Activity (Cell membrane [27]): Active
- Activity (Klebsiella pneumoniae [28]): 2.5 log10CFU/ml
- Activity (Cell membrane [29]): Dde
- MIC (Acinetobacter baumannii [30]): 0.5 µg/mL (≈ 0.844 µM)
- Activity (Klebsiella pneumoniae [31]): 62%
- Activity (Erythrocyte): Non-Toxic
- Activity (Klebsiella pneumoniae [32]): 76%
- MIC (Escherichia coli [33]): 2 µg/mL (≈ 3.38 µM)
- Activity (Klebsiella pneumoniae [34]): 66.7%
- Activity (Acinetobacter baumannii [35]): 70%
- Activity (Klebsiella pneumoniae [36]): 36%
- Activity (Cell membrane [37]): Active
- MIC (Pseudomonas aeruginosa [38]): 4 µg/mL (≈ 6.76 µM)
- Activity (Klebsiella pneumoniae [39]): 89%
- Activity (Acinetobacter baumannii [40]): 66.7%
- Activity (Klebsiella pneumoniae [41]): 30%
- Activity (Acinetobacter baumannii [42]): 30%
- Activity (Klebsiella pneumoniae [43]): 66%
- Activity (Acinetobacter baumannii [44]): 87%
- Activity (Acinetobacter baumannii [45]): 41%
- MIC (Staphylococcus aureus [46]): 2 µg/mL (≈ 3.38 µM)
- Activity (Klebsiella pneumoniae [47]): Active
- Activity (Cell membrane [48]): Dde
- Activity (Klebsiella pneumoniae [49]): Active
- Activity (Acinetobacter baumannii [50]): 2.4 log10CFU/ml
- MIC (Enterococcus faecalis): 16 µg/mL (≈ 27 µM)
- Activity (Calf thymus DNA [51]): Active
